Data from US11419806B2, “Prebiotic oral care methods using a saccharide” (Colgate-Palmolive Company, priority 2013, dated 2022).

Experiments:
Type in all cases: cell-based
V. parvula = assay: Twenty-four hour biofilm growth (crystal violet)
Experimental: (§1) The increase in biofilm formation of the tested bacteria in response to selected saccharides (D-turanose, D-lactitol, myo-inositol, and N-acetyl-D-mannosamine) was investigated by setting up biofilm growth assays in a nutritionally rich medium (brain heart infusion broth (BHI), Oxoid), over 24 hours. Late exponential growth phase liquid cultures were prepared by transferring the respective bacterium from blood agar plates to BHI and overnight incubation at 37° C. in an anaerobic atmosphere for A. viscosus, V. parvula, P. gingivalis, P. intermedia, T. forsythia, A. naeslundii, and C. sputigena, and in a 5% CO2 environment for S. salivarius, S. sanguinis, S. mitis, A. actinomycetemcomitans, S. mutans, and S. gordonii. Overnight cultures were transferred to BHI and adjusted to a concentration of 1×10^7 CFU/ml by measuring the optical density at 600 nm (OD600) (BioRad SmartSpec 3000). For each strain, 200 μl of the bacterial suspension was added to a 96-well plate containing 20 μl of the respective saccharides. Final concentrations of the saccharides were set to 5, 10, 20 and 25 μmol/ml. […] Additionally, for each bacterium tested, a background control, to correct for background staining, was added. This background control contained the bacterium tested and 0.03 weight % chlorhexidine, as an antiseptic. Plates were incubated as previously described. After 24 hrs the supernatant was removed from the wells of the plates. The wells were washed twice with 1×100 μL PBS (phosphate buffered saline), fixed for 20 minutes with 96% vol. ethanol (96% vol. solution in water) and the biofilm retained at the bottom of the wells was stained with 1 weight % crystal violet (1 weight % solution in water). The bound dye was dissolved with 5% vol. acetic acid (5% vol. solution in water). Quantification of the stained biofilm was performed by measuring the absorbance at 630 nm using a Multiskan Ascent microplate reader (Thermo Scientific).
(§2) The experiment was carried out on three different days (thus providing 3 biological replicas) and each day the experiment was carried out in quadruple (thus providing 4 technical replicas) for each combination of bacterium with saccharide and for each control. For each day and for each combination, the average (mean) of the values obtained (as detailed above) for the four technical replicas was calculated to provide a single value for each combination on each day. The values shown in Tables 7a, 7b, 8a, 8b, below, are the average (mean) of the three single values obtained for each combination of bacterium with saccharide.

A. naeslundii = assay: Twenty-four hour biofilm growth (crystal violet)
Experimental: as §1, §2

P. gingivalis = assay: Twenty-four hour biofilm growth (crystal violet)
Experimental: as §1, §2

P. intermedia = assay: Twenty-four hour biofilm growth (crystal violet)
Experimental: as §1, §2

S. mutans = assay: Twenty-four hour biofilm growth (crystal violet); settings: for biofilm growth: OD 630 nm at 24 hrs divided by OD of control (control = 1): S mutans
Experimental: as §1, §2

[1] = test system: beneficial oral bacteria and pathogenic oral bacteria; assay: Microarray screen, overall prebiotic assessment; settings: 24 hrs
Experimental: Substrates that were able to increase the metabolic activity of at least one of the above beneficial bacteria while not or only minimally increasing the growth of the pathogenic bacteria are considered to be prebiotic substrates.
The extent of metabolic activity of the tested bacteria in the presence of the above-mentioned saccharides after 24 hours and 48 hours was investigated through a high throughput phenotype microarray system (PM) for microbial cells (Biolog Inc.). Each PM can contain up to 95 different biochemical compounds (e.g. saccharides) that may act as substrates for bacteria as well as one negative control, not containing the substrates. Microarray plates were used in which the different wells of each plate were pre-loaded (by the manufacturer, Biolog Inc.) with different saccharides to be tested. Each bacterial species was tested using a separate microarray plate. Thus, a single bacterial species was tested with a variety of saccharides on each particular plate. The microarrays are based on redox technology, using cell respiration as a universal reporter. Active cell respiration results in the reduction of a tetrazolium dye and in the formation of a strong color—for example, when using the tetrazolium dye “Biolog Redox Dye Mix D”, the color changes from transparent/colorless to purple when the dye is reduced. The observation of this color change indicates which of the substrates improve the metabolic activity and health of the cells.
Each bacterial species was collected from blood agar plates (incubated for 48 hours anaerobically at 37° C.) and transferred to an IF-0 Base inoculation fluid (Biolog Inc.), which is a nutritionally poor medium. The resulting cell suspension was adjusted to a transmittance of 42% (relative to the transmittance of the base inoculation fluid with no bacterial species present) at 492 nm using a BioRad SmartSpec 3000 Photometer (the adjustment being effected by adding either further inoculation fluid or further bacteria until the transmittance of 42% was achieved). A 1:5 dilution of this suspension was prepared by mixing 3 mL of the 42% transmittance cell suspension with 15 mL of an inoculation fluid (which inoculation fluid was formed by mixing 11.6 mL sterile water, 62.5 mL IF-0 base inoculation fluid and 0.9 mL of the tetrazolium dye “Biolog Redox Dye mix D”), resulting in a final cell density which was equal to 85% transmittance using a BioRad SmartSpec 3000 Photometer. For each of the saccharides tested, the microarray plate (obtained from the supplier (Biolog Inc.) with saccharides already present in the relevant wells in powder form) was directly inoculated with 100 μL/well of this 85% transmittance cell suspension.
All plates were incubated in an anaerobic atmosphere at 37° C. Color changes were measured spectrophotometrically at 492 nm (Thermo Scientific Multiskan Ascent) at 24 hrs and 48 hrs using the same plate at both time points. […] After 24 hrs and 48 hrs under continuous shaking in a Multiscan microplate reader, the optical density (OD) of the synthetic medium at 24 hours and 48 hours was measured (using the microplate reader) at a wavelength of 492 nm for each combination of bacterium/saccharide, and for each of their respective controls (i.e. which contained the particular bacterium but no saccharide).
The experiment was carried out three times for each combination of bacterium with saccharide, with each repeat being carried out on a different day (thus providing three biological replicas). The controls were also carried out three times, as above. The values shown are the average (mean) of the three single values obtained (as detailed above) for each combination of bacterium with saccharide, at 24 hrs and at 48 hrs.
This value was selected in order to exclude low-stimulating metabolites and avoid false positive results.

[2] = test system: beneficial oral bacteria and pathogenic oral bacteria; assay: Twenty-four hour biofilm growth, overall prebiotic assessment; settings: concentrations of 5, 10, 20 and 25 μmol/ml
Description: Substrates that were able to increase the biofilm mass of at least one of the above beneficial bacteria while not or only minimally increasing the biofilm mass of the pathogenic bacteria are considered to be prebiotic compounds.
as §1
as §2, with “saccharide. […]” for “saccharide.”

`OC[C@@H](O)[C@@H](O[C@H]1O[C@H](CO)[C@H](O)[C@H](O)[C@H]1O)[C@H](O)[C@@H](O)CO` [D-Lactitol, 4-O-α-D-galactopyranosyl-D-glucitol] was tested, and the “biofilm growth: OD 630 nm at 24 hrs divided by OD of control (control = 1)” value (V. parvula; 5 μmol/ml) was 1.0022, the “biofilm growth: OD 630 nm at 24 hrs divided by OD of control (control = 1)” value (V. parvula; 10 μmol/ml) was 1.0212 and the “biofilm growth: OD 630 nm at 24 hrs divided by OD of control (control = 1)” value (V. parvula; 20 μmol/ml) was 0.9658. The “biofilm growth: OD 630 nm at 24 hrs divided by OD of control (control = 1)” value (V. parvula; 25 μmol/ml) was 0.9859, the “biofilm growth: OD 630 nm at 24 hrs divided by OD of control (control = 1)” value (A. naeslundii; 5 μmol/ml) was 1.0191 and the “biofilm growth: OD 630 nm at 24 hrs divided by OD of control (control = 1)” value (A. naeslundii; 10 μmol/ml) was 1.0015. The “biofilm growth: OD 630 nm at 24 hrs divided by OD of control (control = 1)” value (A. naeslundii; 20 μmol/ml) was 1.0337, the “biofilm growth: OD 630 nm at 24 hrs divided by OD of control (control = 1)” value (A. naeslundii; 25 μmol/ml) was 1.0428 and the “biofilm growth: OD 630 nm at 24 hrs divided by OD of control (control = 1)” value (P. gingivalis; 5 μmol/ml) was 0.9536. For the same compound, the “biofilm growth: OD 630 nm at 24 hrs divided by OD of control (control = 1)” value (P. gingivalis; 10 μmol/ml) was 0.9616, the “biofilm growth: OD 630 nm at 24 hrs divided by OD of control (control = 1)” value (P. gingivalis; 20 μmol/ml) was 0.8995 and the “biofilm growth: OD 630 nm at 24 hrs divided by OD of control (control = 1)” value (P. gingivalis; 25 μmol/ml) was 0.9701. For the same compound, the “biofilm growth: OD 630 nm at 24 hrs divided by OD of control (control = 1)” value (P. intermedia; 5 μmol/ml) was 1.0504, the “biofilm growth: OD 630 nm at 24 hrs divided by OD of control (control = 1)” value (P. intermedia; 10 μmol/ml) was 1.0396 and the “biofilm growth: OD 630 nm at 24 hrs divided by OD of control (control = 1)” value (P. intermedia; 20 μmol/ml) was 1.1500. For the same compound, the “biofilm growth: OD 630 nm at 24 hrs divided by OD of control (control = 1)” value (P. intermedia; 25 μmol/ml) was 1.1288, the “stimulation of biofilm formation of S. mutans” value (S. mutans; Example 3) was “does not stimulate” and the “biofilm growth: OD 630 nm at 24 hrs divided by OD of control (control = 1)” value (S. mutans; 5 μmol/ml) was 0.9767. For the same compound, the “biofilm growth: OD 630 nm at 24 hrs divided by OD of control (control = 1)” value (S. mutans; 10 μmol/ml) was 0.9333, the “biofilm growth: OD 630 nm at 24 hrs divided by OD of control (control = 1)” value (S. mutans; 20 μmol/ml) was 1.1068 and the “biofilm growth: OD 630 nm at 24 hrs divided by OD of control (control = 1)” value (S. mutans; 25 μmol/ml) was 1.0108. The “prebiotic effects (metabolic activity, threshold value 2)” value [1] was “exhibited prebiotic effects” and the “prebiotic effects (biofilm growth, threshold value 1.6)” value [2] was “exhibited prebiotic effects”.
